# Test results reported in patent publication US9062002B2, “Substituted pyridine derivatives as FabI inhibitors” (Aurigene Discovery Technologies Limited, priority 2011, dated 2015).
# Like-named read-outs stand apart in the source and are kept apart here.
# Legend:
# MRSE = test: MIC by broth microdilution method; format: cell-based; settings: for MIC: Staphylococcus epidermidis, MRSA / MRSE, read-out: MIC Vs MRSA (μg/ml) MRSE
# MRSA = test: MIC by broth microdilution method; format: cell-based; settings: for MIC: Staphylococcus aureus, read-out: MIC Vs MRSA (μg/ml) MRSA
# [1] = Metabolic stability study in mouse liver microsomes; format: in vitro ADME; settings: 1 μM, 37° C.
# Experimental: The above selected compounds have protected mice from infection at ED50 doses. Metabolic Stability Study: In vitro metabolic stability of the compounds was done in mouse liver microsomes prepared in house as per standard protocol. Compounds were tested at 1 μM concentration. Compounds were incubated for 15 and 60 minutes at 37° C. with 100 rpm in shaker bath. After the incubation samples were analysed by LC/MS (API-4000). Respective control (Propranalol) was included in the study.
# MSSA = test: MIC by broth microdilution method; format: cell-based; settings: for MIC: Staphylococcus aureus, MRSA / MSSA, read-out: MIC Vs MRSA (μg/ml) MSSA
# Fab I = settings: 1 μM compound
Percentage of compound remained after 15 min [1] [%],Percentage of compound remained after 60 min [1] [%],Structure (SMILES),FAB-I inhibition %@1 μM (Fab I) [%],other results
55.7,37.6,"CC(C)(C)OC(=O)N1CCC2(CC1)Cc1cc(/C=C/C(=O)N3CC=C(Cc4cccs4)CC3)cnc1NC2=O [Compound 94, (E)-tert-butyl 2-oxo-6-(3-oxo-3-(4-(thiophen-2-ylmethyl)-5,6-dihydropyridin-1(2H)-yl)prop-1-en-1-yl)-2,4-dihydro-1H-spiro[[1,8]naphthyridine-3,4′-piperidine]-1′-carboxylate]",,"MIC (MRSE; MRSE, broth microdilution): 1 µg/mL; MIC (MRSA; MRSA, broth microdilution): 0.5 µg/mL; MIC (MSSA; MSSA, broth microdilution): 0.5 µg/mL"
,,"CC(=O)N1CCC2(CC1)Cc1cc(/C=C/C(=O)N3CC=C(Cc4cccs4)CC3)cnc1NC2=O [Compound 96, (E)-1′-acetyl-6-(3-oxo-3-(4-(thiophen-2-ylmethyl)-5,6-dihydropyridin-1(2H)-yl)prop-1-en-1-yl)-1H-spiro[[1,8]naphthyridine-3,4′-piperidin]-2(4H)-one]",,"MIC (MRSE; MRSE, broth microdilution): 16 µg/mL; MIC (MRSA; MRSA, broth microdilution): 8 µg/mL; MIC (MSSA; MSSA, broth microdilution): 8 µg/mL"
,,O=C1CCc2cc(/C=C/C(=O)N3CC=C(Cc4nccs4)CC3)cnc2N1 [Compound 97],66.85,MIC Vs MRSA (μg/ml) MRSE (MRSE): 1 µg/mL; MIC Vs MRSA (μg/ml) MRSA (MRSA): 0.5 µg/mL; MIC Vs MRSA (μg/ml) MSSA (MSSA): 0.5 µg/mL
,,O=C1CCc2cc(/C=C/C(=O)N3CC=C(Cn4cccn4)CC3)cnc2N1 [Compound 100],77,"MIC Vs MRSA (μg/ml) MRSE (MRSE; MRSE, broth microdilution): 128 µg/mL; MIC Vs MRSA (μg/ml) MRSA (MRSA; MRSA, broth microdilution): 128 µg/mL; MIC Vs MRSA (μg/ml) MSSA (MSSA; MSSA, broth microdilution): 128 µg/mL"
,,"O=C1CCc2cc(/C=C/C(=O)N3CC=C(COc4ccccc4)CC3)cnc2N1 [Compound 107, (E)-6-(3-oxo-3-(4-(phenoxymethyl)-5,6-dihydropyridin-1(2H)-yl)prop-1-en-1-yl)-3,4-dihydro-1,8-naphthyridin-2(1H)-one]",95,"MIC (MRSE; MRSE, broth microdilution): 4 µg/mL; MIC (MRSA; MRSA, broth microdilution): 4 µg/mL; MIC (MSSA; MSSA, broth microdilution): 4 µg/mL"
,,O=C1CCc2cc(/C=C/C(=O)N3CC=C(COc4ccc(Cl)cc4)CC3)cnc2N1 [Compound 113],36,"MIC Vs MRSA (μg/ml) MRSE (MRSE; MRSE, broth microdilution): >128 µg/mL; MIC Vs MRSA (μg/ml) MRSA (MRSA; MRSA, broth microdilution): >128 µg/mL; MIC Vs MRSA (μg/ml) MSSA (MSSA; MSSA, broth microdilution): >128 µg/mL"
44.3,10.2,"O=C(/C=C/c1cnc2c(c1)CC1(CCN(C(=O)CO)CC1)C(=O)N2)N1CC=C(Cc2cccs2)CC1 [Compound 138, (E)-1′-(2-hydroxyacetyl)-6-(3-oxo-3-(4-(thiophen-2-ylmethyl)-5,6-dihydropyridin-1(2H)-yl)prop-1-en-1-yl)-1H-spiroa[[1,8]naphthyridine-3,4′-piperidin]-2(4H)-one]",,
21.6,7.3,"NC(=O)N1CCC2(CC1)Cc1cc(/C=C/C(=O)N3CC=C(Cc4cccs4)CC3)cnc1NC2=O [Compound 139, (E)-2-oxo-6-(3-oxo-3-(4-(thiophen-2-ylmethyl)-5,6-dihydropyridin-1(2H)-yl)prop-1-en-1-yl)-2,4-dihydro-1H-spiro[[1,8]naphthyridine-3,4′-piperidine]-1′-carboxamide]",,
1.9,1.7,"CC(C)CC(=O)N1CCC2(CC1)Cc1cc(/C=C/C(=O)N3CC=C(Cc4cccs4)CC3)cnc1NC2=O [Compound 140, (E)-1′-(3-methylbutanoyl)-6-(3-oxo-3-(4-(thiophen-2-ylmethyl)-5,6-dihydropyridin-1(2H)-yl)prop-1-en-1-yl)-1H-spiro[[1,8]naphthyridine-3,4′-piperidin]-2(4H)-one]",,
27.5,15.8,"O=C1CCNc2cc(/C=C/C(=O)N3CC=C(Cc4nccs4)CC3)cnc2N1 [Compound 143, (E)-8-(3-oxo-3-(4-(thiazol-2-ylmethyl)-5,6-dihydropyridin-1(2H)-yl)prop-1-en-1-yl)-2,3-dihydro-1H-pyrido[2,3-b][1,4]diazepin-4(5H)-one]",,
83.3,60.2,O=C1CCc2cc(/C=C/C(=O)N3CC=C(Cc4cncs4)CC3)cnc2N1 [Compound 145],,
57.9,15.8,"CN1CCC2(CC1)Cc1cc(/C=C/C(=O)N3CC=C(Cc4cccs4)CC3)cnc1NC2=O [Compound 146, (E)-1′-methyl-6-(3-oxo-3-(4-(thiophen-2-ylmethyl)-5,6-dihydropyridin-1(2H)-yl)prop-1-en-1-yl)-1H-spiro[[1,8]naphthyridine-3,4′-piperidin]-2(4H)-one]",,
4.0,2.2,"O=C(/C=C/c1cnc2c(c1)CN(CCN1CCC3(CC1)COC3)C(=O)N2)N1CC=C(Cc2cccs2)CC1 [Compound 147, (E)-3-(2-(2-oxa-7-azaspiro[3.5]nonan-7-yl)ethyl)-6-(3-oxo-3-(4-(thiophen-2-ylmethyl)-5,6-dihydropyridin-1(2H)-yl)prop-1-en-1-yl)-3,4-dihydropyrido[2,3-d]pyrimidin-2(1H)-one]",,
